Assay results published in patent US20190292167A1, “HETEROAROMATIC COMPOUNDS USEFUL FOR THE TREATMENT OF PROLIFERATIVE DISEASES” (Syros Pharmaceuticals, Inc., priority 2013, published 2019).
Like-named read-outs stand apart in the source and are kept apart here. Values belong to the molecule of their own block, whether it stands above or below them.

Key:
HL-60 = experiment: Inhibition of cell proliferation, CellTiter-Glo, 72 hour; type: cell-based; details: Homo sapiens, Blood cancer cell line, read-out: Inhibition of Proliferation HL60
THP-1 = experiment: as above; type: cell-based; details: Homo sapiens, Blood cancer cell line
MV4-11 = experiment: as above; type: cell-based; details: Homo sapiens, Blood cancer cell line
RS4-11 = experiment: as above; type: cell-based; details: Homo sapiens, Blood cancer cell line
hTERT-HME1 = experiment: as above; type: cell-based; details: Breast Cancer/Breast cell line
MDA-MB231 = experiment: as above; type: cell-based; details: Homo sapiens, MDA-MB-231, Breast Cancer/Breast cell line
MCF-7 = experiment: as above; type: cell-based; details: Homo sapiens, MCF7, Breast Cancer/Breast cell line
MCF-10A = experiment: as above; type: cell-based; details: Homo sapiens, Breast Cancer/Breast cell line, read-out: Inhibition of Proliferation MCF10A
T47D = experiment: as above; type: cell-based; details: Homo sapiens, Breast Cancer/Breast cell line
SKBR-3 = experiment: as above; type: cell-based; details: Homo sapiens, SK-BR-3, Breast Cancer/Breast cell line, read-out: Inhibition of Proliferation SKBR3
A673 = experiment: as above; type: cell-based; details: Homo sapiens, Ewing's Sarcoma cell line
Experimental: (§1) • Hs863T—DMEM (4 mM L-Glut, 4.5 g/L Glucose, 1 mM pyruvate, 1.5 g/l bicarb)+10% FBS • Hs822T—DMEM (4 mM L-Glut, 4.5 g/L Glucose, 1 mM pyruvate, 1.5 g/l bicarb)+10% FBS • A673—DMEM (4 mM L-Glut, 4.5 g/L Glucose, 1 mM pyruvate, 1.5 g/l bicarb)+10% FBS • SKES-1—McCoy's 5a Medium Modified (modified—1.5 mM L-glut, 2.2 g/L bicarb)+15% FBS • RD-ES—RPMI 1640+15% FBS.

Hs822T = experiment: as above; type: cell-based; details: Ewing's Sarcoma cell line
Experimental: as §1

Hs863T = experiment: as above; type: cell-based; details: Ewing's Sarcoma cell line
Experimental: as §1

RD-ES = experiment: as above; type: cell-based; details: Ewing's Sarcoma cell line
Experimental: as §1

SKES-1 = experiment: as above; type: cell-based; details: Homo sapiens, SK-ES1, Ewing's Sarcoma cell line, read-out: Inhibition of Proliferation SK-ES
Experimental: as §1

SAOS = experiment: as above; type: cell-based; details: Osteosarcoma cell line
MNNG-Hos Cl#5 = experiment: as above; type: cell-based; details: Osteosarcoma cell line
143B = experiment: as above; type: cell-based; details: Homo sapiens, Osteosarcoma cell line
CDK7 = molecular target: T1, CDK7 (Homo sapiens, UniProt P50613); experiment: Adapta kinase assay (Life Technologies) against CDK7, co-factors cyclin H and MNAT1; type: biochemical; details: read-out: CDK7 Inhibition
T1 construct: purchased Life Technologies (Adapta kinase assay service)
T1 sequence (P50613 whole entry): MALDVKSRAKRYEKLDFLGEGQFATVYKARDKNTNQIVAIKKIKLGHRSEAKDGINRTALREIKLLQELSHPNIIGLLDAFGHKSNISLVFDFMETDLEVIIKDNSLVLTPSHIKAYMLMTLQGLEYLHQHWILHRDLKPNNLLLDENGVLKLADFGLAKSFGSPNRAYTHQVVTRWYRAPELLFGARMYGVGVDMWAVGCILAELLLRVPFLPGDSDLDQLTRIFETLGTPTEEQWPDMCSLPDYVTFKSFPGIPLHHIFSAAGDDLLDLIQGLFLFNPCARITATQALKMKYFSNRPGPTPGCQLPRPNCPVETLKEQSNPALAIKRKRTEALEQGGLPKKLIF
T1 sequence (P51946 whole entry partner): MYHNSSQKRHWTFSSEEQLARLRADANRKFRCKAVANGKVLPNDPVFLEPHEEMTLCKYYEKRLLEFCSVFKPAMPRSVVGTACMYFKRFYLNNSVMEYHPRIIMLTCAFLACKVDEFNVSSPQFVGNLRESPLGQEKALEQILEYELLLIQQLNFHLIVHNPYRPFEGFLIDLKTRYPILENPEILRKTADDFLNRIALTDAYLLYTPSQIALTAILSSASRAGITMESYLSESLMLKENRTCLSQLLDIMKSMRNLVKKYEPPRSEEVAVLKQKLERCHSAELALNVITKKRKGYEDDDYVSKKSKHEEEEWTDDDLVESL
T1 sequence (P51948 whole entry partner): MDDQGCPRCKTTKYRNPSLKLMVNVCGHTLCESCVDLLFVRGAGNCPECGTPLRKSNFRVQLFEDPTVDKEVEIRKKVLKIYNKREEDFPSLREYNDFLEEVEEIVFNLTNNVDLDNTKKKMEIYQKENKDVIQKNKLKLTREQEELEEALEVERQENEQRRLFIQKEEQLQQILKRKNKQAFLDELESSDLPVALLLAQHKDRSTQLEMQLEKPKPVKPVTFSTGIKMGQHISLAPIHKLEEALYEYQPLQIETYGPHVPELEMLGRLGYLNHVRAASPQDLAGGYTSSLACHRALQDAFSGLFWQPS
Experimental: Compounds of the invention were assayed for activity against CDK7 at Life Technologies™ (Grand Island, N.Y.) using their commercially available Adapta® kinase assay services. […] Details of the assay, including the substrate used for CDK7 kinase, are available on the Life Technologies web site (http://www.lifetechnologies.com/us/en/homellife-science/drug-discovery/target-and-lead-identification-and-validation/kinasebiology/kinase-activity-assays.html).
The co-factors used for the assay were cyclin H and MNAT1.

Jurkat = experiment: Inhibition of cell proliferation, CellTiter-Glo, 72 hour; type: cell-based; details: read-out: Inhibition of Proliferation of Jurkat Cells
Experimental: The following cancer cell lines were tested with the media conditions indicated: […]

[1] = Homo sapiens, Jurkat, 72 h, Blood cancer cell line, 72 hour
[2] = Blood cancer cell line, 72 hour

Structure (SMILES): CC(C)[C@]12O[C@H]1[C@@H]1O[C@]13[C@]1(O[C@H]1C[C@H]1C4=C(CC[C@@]13C)C(=O)OC4)[C@@H]2O [Triptolide, triptolide, reference compound]
- IC50 (HL-60): < 500 nM
- IC50 (THP-1): < 500 nM
- IC50 (MV4-11): < 500 nM
- IC50 (RS4-11): < 500 nM
- IC50 (hTERT-HME1): < 500 nM
- IC50 (MDA-MB231): < 500 nM
- IC50 (MCF-7): < 500 nM
- IC50 (MCF-10A): < 500 nM
- IC50 (T47D): > 5000 nM
- IC50 (SKBR-3): < 500 nM
- IC50 (A673): < 500 nM
- IC50 (Hs822T): 500 to 5000 nM
- IC50 (Hs863T): > 5000 nM
- IC50 (RD-ES): < 500 nM
- IC50 (SKES-1): < 500 nM
- IC50 (SAOS): < 500 nM
- IC50 (MNNG-Hos Cl#5): < 500 nM
- IC50 (143B): < 500 nM

- IC50 (HL-60): < 500 nM
- IC50 (THP-1): < 500 nM
- IC50 (MV4-11): < 500 nM
- IC50 (RS4-11): < 500 nM
- IC50 (MDA-MB231): < 500 nM
- IC50 (MCF-7): 500 to 5000 nM
- IC50 (T47D): > 5000 nM
- IC50 (SKBR-3): < 500 nM
- IC50 (SKES-1): < 500 nM
Structure (SMILES): CN1CC[C@H](c2c(O)cc(O)c3c(=O)cc(-c4ccccc4Cl)oc23)[C@H](O)C1 [Flavopiridol, flavopiridol, reference compound]
- IC50 (hTERT-HME1): < 500 nM
- IC50 (MCF-10A): < 500 nM
- IC50 (A673): < 500 nM
- IC50 (Hs822T): > 5000 nM
- IC50 (Hs863T): > 5000 nM
- IC50 (RD-ES): < 500 nM
- IC50 (SAOS): < 500 nM
- IC50 (MNNG-Hos Cl#5): 500 to 5000 nM
- IC50 (143B): 500 to 5000 nM

- IC50 (CDK7): < 100 nM
- IC50 (Jurkat; [1]): < 500 nM
Structure (SMILES): CN(C)C/C=C/C(=O)Nc1ccc(C(=O)N2CCC(Nc3ncc(Cl)c(-c4c[nH]c5ccccc45)n3)CC2)cc1F [Compound 112, (E)-N-(4-(4-(5-chloro-4-(1H-indol-3-yl)pyrimidin-2-ylamino)piperidine-1-carbonyl)-2-fluorophenyl)-4-(dimethylamino)but-2-enamide]

- IC50 (CDK7): 100 to 1000 nM
- IC50 (Jurkat; [1]): 500 to 5000 nM
Structure (SMILES): Cc1nc(C)c(-c2nc(N[C@H]3CC[C@@H](NC(=O)c4ccc(NC(=O)/C=C/CN(C)C)cc4)C3)ncc2Cl)s1 (racemic) [Compound 128, N-((1R,3S)-3-((5-chloro-4-(2,4-dimethylthiazol-5-yl)pyrimidin-2-yl)amino)cyclopentyl)-4-((E)-4-(dimethylamino)but-2-enamido)benzamide and N-((1S,3R)-3-((5-chloro-4-(2,4-dimethylthiazol-5-yl)pyrimidin-2-yl)amino)cyclopentyl)-4-((E)-4-(dimethylamino)but-2-enamido)benzamide]

- IC50 (CDK7): 100 to 1000 nM
- IC50 (Jurkat; [2]): 500 to 5000 nM
Structure (SMILES): C=CC(=O)Nc1ccc(CNC(=O)[C@H]2C[C@H](Nc3ncc(Cl)c(-c4c[nH]c5ccccc45)n3)CN(C)C2)cc1 (relative stereo) [Compound 155, (+/−trans)-N-(4-acrylamidobenzyl)-5-((5-chloro-4-(1H-indol-3-yl)pyrimidin-2-yl)amino)-1-methylpiperidine-3-carboxamide]

- IC50 (CDK7): < 100 nM
- IC50 (Jurkat; [1]): > 5000 nM
Structure (SMILES): Nc1ccc(S(=O)(=O)N2CC[C@@H](Nc3ncc(Cl)c(-c4c[nH]c5ccccc45)n3)C2)cc1 [Compound 32, N—((R)-1-(4-aminophenylsulfonyl)pyrrolidin-3-yl)-5-chloro-4-(1H-indol-3-yl)pyrimidin-2-amine]

- IC50 (CDK7): < 100 nM
- IC50 (Jurkat; [1]): 500 to 5000 nM
Structure (SMILES): Nc1ccc(C(=O)N2CCC(Nc3ncc(Cl)c(-c4c[nH]c5ccccc45)n3)CC2)cc1F [Compound 55, (4-amino-3-fluorophenyl)(4-(5-chloro-4-(1H-indol-3-yl)pyrimidin-2-ylamino)piperidin-1-yl)methanone]

Structure (SMILES): N#Cc1cnc(N[C@@H]2CCN(C(=O)c3ccc(NC(=O)/C=C/Cn4ccnc4)cc3)C2)nc1-c1c[nH]c2ccccc12 [Compound 109, (E)-N-(4-((R)-3-(5-cyano-4-(1H-indol-3-yl)pyrimidin-2-ylamino)pyrrolidine-1-carbonyl)phenyl)-4-(1H-imidazol-1-yl)but-2-enamide]
- IC50 (CDK7): < 100 nM
- IC50 (Jurkat; Homo sapiens, Jurkat, 72 h): < 500 nM

- IC50 (CDK7): < 100 nM
- IC50 (Jurkat; [1]): < 500 nM
Structure (SMILES): N#Cc1cnc(N[C@@H]2CCN(C(=O)c3ccc(NC(=O)/C=C/CN4CCOCC4)cc3)C2)nc1-c1c[nH]c2ccccc12 [Compound 107, (E)-N-(4-((R)-3-(5-cyano-4-(1H-indol-3-yl)pyrimidin-2-ylamino)pyrrolidine-1-carbonyl)phenyl)-4-morpholinobut-2-enamide]

- IC50 (CDK7): < 100 nM
- IC50 (Jurkat; [1]): < 500 nM
Structure (SMILES): Cc1cc(NC(=O)/C=C/CN(C)C)ccc1C(=O)N1CCC(Nc2ncc(Cl)c(-c3c[nH]c4ccccc34)n2)CC1 [Compound 114, (E)-N-(4-(4-(5-chloro-4-(1H-indol-3-yl)pyrimidin-2-ylamino)piperidine-1-carbonyl)-3-methylphenyl)-4-(dimethylamino)but-2-enamide]

- IC50 (CDK7): > 1000 nM
- IC50 (Jurkat; [1]): > 5000 nM
Structure (SMILES): CC(C)(CNC(=O)c1ccc(NC(=O)/C=C/CO)cc1)CNc1ncc(Cl)c(-c2c[nH]c3ccccc23)n1 [Compound 132, (E)-N-(3-(5-chloro-4-(1H-indol-3-yl)pyrimidin-2-ylamino)-2,2-dimethylpropyl)-4-(4-hydroxybut-2-enamido)benzamide]

- IC50 (CDK7): < 100 nM
- IC50 (Jurkat; [1]): < 500 nM
Structure (SMILES): C=CC(=O)Nc1ccc(CNC(=O)[C@H]2CNCC(Nc3ncc(Cl)c(-c4c[nH]c5ccccc45)n3)C2)cc1 (mixture of isomers) [Compound 151, (+/−trans)-N-(4-acrylamidobenzyl)-5-((5-chloro-4-(1H-indol-3-yl)pyrimidin-2-yl)amino)piperidine-3-carboxamide]

- IC50 (CDK7): 100 to 1000 nM
- IC50 (Jurkat; [1]): 500 to 5000 nM
Structure (SMILES): CC(=O)Nc1ccc(CN2CCC(Nc3ncc(Cl)c(-c4c[nH]c5ccccc45)n3)CC2)cc1 [Compound 47, N-(4-((4-(5-chloro-4-(1H-indol-3-yl)pyrimidin-2-ylamino)piperidin-1-yl)methyl)phenyl)acetamide]

- IC50 (CDK7): 100 to 1000 nM
- IC50 (Jurkat; [1]): 500 to 5000 nM
Structure (SMILES): O=C(/C=C/CNC(=O)C(F)(F)F)Nc1ccc(CN2CCC(Nc3ncc(Cl)c(-c4c[nH]c5ccccc45)n3)CC2)cc1 [Compound 156, (E)-N-(4-((4-((5-chloro-4-(1H-indol-3-yl)pyrimidin-2-yl)amino)piperidin-1-yl)methyl)phenyl)-4-(2,2,2-trifluoroacetamido)but-2-enamide]

- IC50 (CDK7): 100 to 1000 nM
- IC50 (Jurkat; [1]): > 5000 nM
Structure (SMILES): Cc1cc(N)ccc1C(=O)N1CCC(Nc2ncc(Cl)c(-c3c[nH]c4ccccc34)n2)CC1 [Compound 63, (4-amino-2-methylphenyl)(4-(5-chloro-4-(1H-indol-3-yl)pyrimidin-2-ylamino)piperidin-1-yl)methanone]

Structure (SMILES): Nc1ccc(C(=O)N2[C@@H]3CC[C@H]2C[C@@H](Nc2ncc(Cl)c(-c4c[nH]c5ccccc45)n2)C3)cc1 [Compound 302, (4-aminophenyl)((1R,3R,5S)-3-(5-chloro-4-(1H-indol-3-yl)pyrimidin-2-ylamino)-8-aza-bicyclo[3.2.1]octan-8-yl)methanone]
- IC50 (CDK7): > 1000 nM
- IC50 (Jurkat; [1]): 500 to 5000 nM

- IC50 (CDK7): < 100 nM
- IC50 (Jurkat; [1]): < 500 nM
Structure (SMILES): CN(C)C/C=C/C(=O)Nc1cccc(CN2CCC(Nc3ncc(Cl)c(-c4c[nH]c5ccccc45)n3)CC2)c1 [Compound 141, (E)-N-[3-[[4-[[5-chloro-4-(1H-indol-3-yl)pyrimidin-2-yl]amino]-1-piperidyl]methyl]phenyl]-4-(dimethylamino)but-2-enamide]

- IC50 (CDK7): 100 to 1000 nM
- IC50 (Jurkat; [1]): > 5000 nM
Structure (SMILES): CN(C)C/C=C/C(=O)Nc1ccc(C(=O)N2CCC(Nc3ncc(Cl)c(-c4c[nH]cn4)n3)CC2)cc1 [Compound 127, (E)-N-(4-(4-((5-chloro-4-(1H-imidazol-4-yl)pyrimidin-2-yl)amino)piperidine-1-carbonyl)phenyl)-4-(dimethylamino)but-2-enamide]

Structure (SMILES): C=CC(=O)Nc1ccc(CNC(=O)[C@@H]2CNC[C@H](Nc3ncc(Cl)c(-c4c[nH]c5ccccc45)n3)C2)cc1 (relative stereo) [Compound 152, (+/−cis)-N-(4-acrylamidobenzyl)-5-((5-chloro-4-(1H-indol-3-yl)pyrimidin-2-yl)amino)piperidine-3-carboxamide]
- IC50 (CDK7): < 100 nM
- IC50 (Jurkat; [2]): 500 to 5000 nM
